PubChem BioAssay AID2060626 (Molecular Pharmacology Branch, DTP, NCI, 2025)

System: 168753-222-R-J1-PDC complex spheroid viability
Experiment: Anticancer human tumor 168753-222-R-J1-PDC patient-derived bladder carcinoma cell line growth inhibition [CLK]
Details: for IC50: curve of first compound; for viability, T/C: stronger effect = lower value
Summary of the method: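 Multi-cell-type spheroids combined patient-derived tumor cells with HUVEC endothelial cells and human mesenchymal stem cells. Paired agents were dosed in half-log steps down from about clinical Cmax, or from 10 microM where Cmax was unknown.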

[1] = second compound 0.0316 µM, first compound 0.00949 µM
[2] = second compound 0.0316 µM, first compound 0.03 µM
[3] = second compound 0.0316 µM, first compound 0.0949 µM
[4] = second compound 0.0316 µM, first compound 0.3 µM
[5] = second compound 0.1 µM, first compound 0.00949 µM
[6] = second compound 0.1 µM, first compound 0.03 µM
[7] = second compound 0.1 µM, first compound 0.0949 µM
[8] = second compound 0.1 µM, first compound 0.3 µM
[9] = second compound 0.316 µM, first compound 0.00949 µM
[10] = second compound 0.316 µM, first compound 0.03 µM
[11] = second compound 0.316 µM, first compound 0.0949 µM
[12] = second compound 0.316 µM, first compound 0.3 µM
[13] = second compound 1 µM, first compound 0.00949 µM
[14] = second compound 1 µM, first compound 0.03 µM
[15] = second compound 1 µM, first compound 0.0949 µM
[16] = second compound 1 µM, first compound 0.3 µM
[17] = second compound 3.16 µM, first compound 0.00949 µM
[18] = second compound 3.16 µM, first compound 0.03 µM
[19] = second compound 3.16 µM, first compound 0.0949 µM
[20] = second compound 3.16 µM, first compound 0.3 µM
[21] = second compound 10 µM, first compound 0.00949 µM
[22] = second compound 10 µM, first compound 0.03 µM
[23] = second compound 10 µM, first compound 0.0949 µM
[24] = second compound 10 µM, first compound 0.3 µM
[25] = second compound 0.0316 µM, first compound 0.0316 µM
[26] = second compound 0.0316 µM, first compound 0.1 µM
[27] = second compound 0.0316 µM, first compound 0.316 µM
[28] = second compound 0.0316 µM, first compound 1 µM
[29] = second compound 0.0316 µM, first compound 3.16 µM
[30] = second compound 0.0316 µM, first compound 10 µM
[31] = second compound 0.1 µM, first compound 0.0316 µM
[32] = second compound 0.1 µM, first compound 0.1 µM
[33] = second compound 0.1 µM, first compound 0.316 µM
[34] = second compound 0.1 µM, first compound 1 µM
[35] = second compound 0.1 µM, first compound 3.16 µM
[36] = second compound 0.1 µM, first compound 10 µM
[37] = second compound 0.316 µM, first compound 0.0316 µM
[38] = second compound 0.316 µM, first compound 0.1 µM
[39] = second compound 0.316 µM, first compound 0.316 µM
[40] = second compound 0.316 µM, first compound 1 µM
[41] = second compound 0.316 µM, first compound 3.16 µM
[42] = second compound 0.316 µM, first compound 10 µM
[43] = second compound 1 µM, first compound 0.0316 µM
[44] = second compound 1 µM, first compound 0.1 µM
[45] = second compound 1 µM, first compound 0.316 µM
[46] = second compound 1 µM, first compound 1 µM
[47] = second compound 1 µM, first compound 3.16 µM
[48] = second compound 1 µM, first compound 10 µM
[49] = second compound 3.16 µM, first compound 0.0316 µM
[50] = second compound 3.16 µM, first compound 0.1 µM
[51] = second compound 3.16 µM, first compound 0.316 µM
[52] = second compound 3.16 µM, first compound 1 µM
[53] = second compound 3.16 µM, first compound 3.16 µM
[54] = second compound 3.16 µM, first compound 10 µM
[55] = second compound 10 µM, first compound 0.0316 µM
[56] = second compound 10 µM, first compound 0.1 µM
[57] = second compound 10 µM, first compound 0.316 µM
[58] = second compound 10 µM, first compound 1 µM
[59] = second compound 10 µM, first compound 3.16 µM
[60] = second compound 10 µM, first compound 10 µM
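Further: viability measured after seven days of drug exposure.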
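Wherever viability, T/C is given: luminescence signal used as surrogate for viable cell amount; 100% = DMSO vehicle control wells.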

C=CC(=O)Nc1cc(Nc2nccc(-c3cn(C)c4ccccc34)n2)c(OC)cc1N(C)CCN(C)C + CN1CCN(c2cc(C(=O)Nc3cc4cc(-c5cnn(C)c5)ccc4cn3)ccn2)CC1
IC50 (second compound 0.0316 µM): > 300 nM
IC50 (second compound 0.1 µM): 58.9 nM
IC50 (second compound 0.316 µM): < 0.949 nM
IC50 (second compound 1 µM): < 0.949 nM
IC50 (second compound 3.16 µM): < 0.949 nM
IC50 (second compound 10 µM): < 0.949 nM
viability, T/C (second compound 0.0316 µM, first compound 0.000949 µM): 117%
viability, T/C (second compound 0.0316 µM, first compound 0.003 µM): 113%
viability, T/C [1]: 105%
viability, T/C [2]: 114%
viability, T/C [3]: 103%
viability, T/C [4]: 108%
viability, T/C (second compound 0.1 µM, first compound 0.000949 µM): 65.7%
viability, T/C (second compound 0.1 µM, first compound 0.003 µM): 71.8%
viability, T/C [5]: 53.4%
viability, T/C [6]: 77%
viability, T/C [7]: 21.2%
viability, T/C [8]: 54.9%
viability, T/C (second compound 0.316 µM, first compound 0.000949 µM): 10.4%
viability, T/C (second compound 0.316 µM, first compound 0.003 µM): 8.73%
viability, T/C [9]: 9.29%
viability, T/C [10]: 6.59%
viability, T/C [11]: 5.77%
viability, T/C [12]: 1.61%
viability, T/C (second compound 1 µM, first compound 0.000949 µM): 0.14%
viability, T/C (second compound 1 µM, first compound 0.003 µM): 0.17%
viability, T/C [13]: 0.15%
viability, T/C [14]: 0.32%
viability, T/C [15]: 0.13%
viability, T/C [16]: 0.91%
viability, T/C (second compound 3.16 µM, first compound 0.000949 µM): 0.1%
viability, T/C (second compound 3.16 µM, first compound 0.003 µM): 0.13%
viability, T/C [17]: 0.21%
viability, T/C [18]: 0.09%
viability, T/C [19]: 0.17%
viability, T/C [20]: 2.63%
viability, T/C (second compound 10 µM, first compound 0.000949 µM): 0.15%
viability, T/C (second compound 10 µM, first compound 0.003 µM): 0.28%
viability, T/C [21]: 0.5%
viability, T/C [22]: 0.15%
viability, T/C [23]: 0.27%
viability, T/C [24]: 0.37%

CC1(C)CCC(CN2CCN(c3ccc(C(=O)NS(=O)(=O)c4ccc(NCC5CCOCC5)c([N+](=O)[O-])c4)c(Oc4cnc5[nH]ccc5c4)c3)CC2)=C(c2ccc(Cl)cc2)C1 + CN1CCN(c2cc(C(=O)Nc3cc4cc(-c5cnn(C)c5)ccc4cn3)ccn2)CC1
IC50 (second compound 0.0316 µM): 675 nM
IC50 (second compound 0.1 µM): 154 nM
IC50 (second compound 0.316 µM): < 31.6 nM
IC50 (second compound 1 µM): < 31.6 nM
IC50 (second compound 3.16 µM): < 31.6 nM
IC50 (second compound 10 µM): < 31.6 nM
viability, T/C [25]: 74.8%
viability, T/C [26]: 84.6%
viability, T/C [27]: 55.5%
viability, T/C [28]: 41.3%
viability, T/C [29]: 31.6%
viability, T/C [30]: 10.2%
viability, T/C [31]: 69.7%
viability, T/C [32]: 60.5%
viability, T/C [33]: 28.1%
viability, T/C [34]: 35.8%
viability, T/C [35]: 33.7%
viability, T/C [36]: 10.3%
viability, T/C [37]: 10.3%
viability, T/C [38]: 10.3%
viability, T/C [39]: 8.72%
viability, T/C [40]: 8.03%
viability, T/C [41]: 8.36%
viability, T/C [42]: 7.08%
viability, T/C [43]: 0.25%
viability, T/C [44]: 0.31%
viability, T/C [45]: 0.77%
viability, T/C [46]: 0.22%
viability, T/C [47]: 0.16%
viability, T/C [48]: 1.27%
viability, T/C [49]: 0.41%
viability, T/C [50]: 0.29%
viability, T/C [51]: 0.71%
viability, T/C [52]: 0.15%
viability, T/C [53]: 1.14%
viability, T/C [54]: 0.49%
viability, T/C [55]: 0.2%
viability, T/C [56]: 0.75%
viability, T/C [57]: 0.51%
viability, T/C [58]: 0.26%
viability, T/C [59]: 0.35%
viability, T/C [60]: 1.21%

NC(=O)C(=Cn1cnc(-c2cc(C(F)(F)F)cc(C(F)(F)F)c2)n1)c1cncnc1 + CN1CCN(c2cc(C(=O)Nc3cc4cc(-c5cnn(C)c5)ccc4cn3)ccn2)CC1
IC50 (second compound 0.0316 µM): 56.2 nM
IC50 (second compound 0.1 µM): 13.6 nM
IC50 (second compound 0.316 µM): < 9.49 nM
IC50 (second compound 1 µM): < 9.49 nM
IC50 (second compound 3.16 µM): < 9.49 nM
IC50 (second compound 10 µM): < 9.49 nM
viability, T/C [1]: 75.6%
viability, T/C [2]: 72.3%
viability, T/C [3]: 31.5%
viability, T/C [4]: 22.6%
viability, T/C (second compound 0.0316 µM, first compound 0.949 µM): 15%
viability, T/C (second compound 0.0316 µM, first compound 3 µM): 12.9%
viability, T/C [5]: 61.4%
viability, T/C [6]: 25.2%
viability, T/C [7]: 10.8%
viability, T/C [8]: 10.9%
viability, T/C (second compound 0.1 µM, first compound 0.949 µM): 5.67%
viability, T/C (second compound 0.1 µM, first compound 3 µM): 3.14%
viability, T/C [9]: 6.93%
viability, T/C [10]: 4.81%
viability, T/C [11]: 0.76%
viability, T/C [12]: 0.08%
viability, T/C (second compound 0.316 µM, first compound 0.949 µM): 0.11%
viability, T/C (second compound 0.316 µM, first compound 3 µM): 0.75%
viability, T/C [13]: 0.09%
viability, T/C [14]: 0.15%
viability, T/C [15]: 0.1%
viability, T/C [16]: 0.05%
viability, T/C (second compound 1 µM, first compound 0.949 µM): 0.06%
viability, T/C (second compound 1 µM, first compound 3 µM): 0.72%
viability, T/C [17]: 0.06%
viability, T/C [18]: 0.22%
viability, T/C [19]: 0.75%
viability, T/C [20]: 0.08%
viability, T/C (second compound 3.16 µM, first compound 0.949 µM): 0.69%
viability, T/C (second compound 3.16 µM, first compound 3 µM): 0.12%
viability, T/C [21]: 0.87%
viability, T/C [22]: 0.14%
viability, T/C [23]: 0.3%
viability, T/C [24]: 0.13%
viability, T/C (second compound 10 µM, first compound 0.949 µM): 0.22%
viability, T/C (second compound 10 µM, first compound 3 µM): 0.56%

Nc1ccccc1NC(=O)c1ccc(CNC(=O)OCc2cccnc2)cc1 + CN1CCN(c2cc(C(=O)Nc3cc4cc(-c5cnn(C)c5)ccc4cn3)ccn2)CC1
IC50 (second compound 0.0316 µM): 554 nM
IC50 (second compound 0.1 µM): < 31.6 nM
IC50 (second compound 0.316 µM): < 31.6 nM
IC50 (second compound 1 µM): < 31.6 nM
IC50 (second compound 3.16 µM): < 31.6 nM
IC50 (second compound 10 µM): < 31.6 nM
viability, T/C [25]: 96.5%
viability, T/C [26]: 58.7%
viability, T/C [27]: 54.6%
viability, T/C [28]: 54%
viability, T/C [29]: 24.3%
viability, T/C [30]: 7.33%
viability, T/C [31]: 50%
viability, T/C [32]: 41.3%
viability, T/C [33]: 38.2%
viability, T/C [34]: 43.9%
viability, T/C [35]: 22.6%
viability, T/C [36]: 0.13%
viability, T/C [37]: 9.09%
viability, T/C [38]: 8.55%
viability, T/C [39]: 7.31%
viability, T/C [40]: 7.09%
viability, T/C [41]: 0.22%
viability, T/C [42]: 0.07%
viability, T/C [43]: 0.13%
viability, T/C [44]: 0.23%
viability, T/C [45]: 0.08%
viability, T/C [46]: 0.05%
viability, T/C [47]: 0.16%
viability, T/C [48]: 0.89%
viability, T/C [49]: 0.79%
viability, T/C [50]: 0.08%
viability, T/C [51]: 0.09%
viability, T/C [52]: 0.06%
viability, T/C [53]: 0.71%
viability, T/C [54]: 0.95%
viability, T/C [55]: 0.06%
viability, T/C [56]: 0.23%
viability, T/C [57]: 0.32%
viability, T/C [58]: 0.1%
viability, T/C [59]: 0.24%
viability, T/C [60]: 1.08%
